{
  "source": "patent US20250073194A1",
  "about": "“RXR AGONISTS IN EYE DISORDERS” (Baylor College of Medicine, priority 2022, published 2025)",
  "key": {"γδ T cells [1]": {"test_system": "γδ T cells", "experiment": "IL-17A/F in supernatants of stimulated cultured γδ T cells (ELISA)", "type": "cell-based, mouse", "settings": "for suppressive effect on supernatant IL-17 concentration: bead+IL-23 stimulated, 100 nM 9-cis RA, 96 hours; for effect on IL-17A/F cytokine concentration in supernatants: C57BL/6 spleen γδ T cells, anti-CD3/CD28 beads plus recombinant IL-23, 10 and 100 nM (FIG. 12)", "protocol": "(§1) Pooled γ/δ T17 cells from the spleens of 8-10 week old B6 and Pinkie mice were isolated using the TCR γ/δ T cells Isolation Kit according to the manufacturer's instruction (Miltenyi Biotec, Bergisch Gladbach, Germany). To determine the effect of 9CisRA and monocytes conditional media on IL17 cytokine production, the purified γδ T17 cells were stimulated with anti-CD3/CD28 Dynabeads (Catalog #11452D, Life Technologies AS, Norway) alone or in combination with IL-23 (10 ng/ml, eBioscience), 9-cisRA (100 nM) or monocyte conditioned media for 96 hours for cytokine measurement.\n(§2) Mouse IL17 was measured from cell cultured supernatant after 96 hours incubation using a mouse IL-17 DuoSet Enzyme-linked immunosorbent assay (ELISA) (R&D systems, Minneapolis, USA)"}, "monocytes [2]": {"test_system": "monocytes", "settings": "9-cis RA treated monocytes; cited from earlier work"}, "monocytes [3]": {"test_system": "monocytes", "experiment": "Stimulatory activity of conditioned media from LPS-treated monocytes on IL-17 production by γδ T cells", "type": "cell-based, mouse", "settings": "LPS-stimulated cultured monocytes treated with 100 nM 9-cisRA", "protocol": "(§3) Monocytes were purified from 3 days cultured mouse bone marrow cells using the monocytes isolation kit, according to the manufacturer's instruction (BM, Miltenyi Biotec, Bergisch Gladbach, Germany). 5×10^5 monocytes plated in a 48 well plate were preincubated with 100 nM 9-cisRA for 1 hour followed by stimulation with 0.5 μg/ml LPS for 4 hours for RNA or overnight for cytokines. The total RNA was extracted using an RNeasy® Plus Mimi Kit (Cat No. 74134, QIAGEN GmbH, Hilden, Germany) according to manufacturer's instruction. The RNA and collected supernatants were stored at −80° C. until further use.\nas §1, §2"}, "monocytes [4]": {"test_system": "monocytes", "experiment": "Nanostring myeloid innate immunity array of LPS-stimulated cultured monocytes", "type": "cell-based, mouse", "settings": "100 nM 9-cis RA added to culture media", "protocol": "as §3\nThis was performed by the Genomic and RNA Profiling Core at Baylor College of Medicine using the NanoString Technologies nCounter Gene Expression Mouse Myeloid Innate Immunity V2 Panel codeset (NS_MM_Myeloid_V2.0) containing 770 unique pairs of 35-50 bp reporter probes and biotin-labeled capture probes, including internal reference controls (NanoString, Seattle, WA) as previously described. (Alam et al., 2021a). Data was analyzed by ROSALIND® (https://rosalind.bio/), with a HyperScale architecture developed by ROSALIND, Inc. (San Diego, CA)."}, "γδ T cells [5]": {"test_system": "γδ T cells", "settings": "stimulated with anti-CD28 antibody and cytokine cocktail of IL-23 and IL-1; cited from earlier work"}},
  "note": "Entries after “also recorded” stand apart in the source; their conditions may differ.",
  "data": [
    {"smiles": "CC1=C(/C=C/C(C)=C\\C=C\\C(C)=C\\C(=O)O)C(C)(C)CCC1", "note": "[9-cis RA, 9-cis retinoic acid]", "values": [
      {"measurement": "suppressive effect on supernatant IL-17 concentration", "setting": "γδ T cells [1]; B6 γδ T cells", "value": 74, "unit": "%"},
      {"measurement": "effect on IL-17A/F cytokine concentration in supernatants", "setting": "γδ T cells [1]", "value": "suppressive effects"},
      {"measurement": "suppressive effect on supernatant IL-17 concentration", "setting": "γδ T cells [1]; Pinkie γδ T cells", "value": 46, "unit": "%"},
      {"measurement": "suppression of IL-17 production", "setting": "γδ T cells [1]; cultured γδ T cells stimulated by CD28 beads or beads plus IL-23", "value": "> 70", "unit": "%"},
      {"measurement": "supernatant IL-17 concentration", "setting": "γδ T cells [1]; stimulated γδ T cells from both strains (B6 and Pinkie), 100 nM", "value": "suppresses; also recorded: significantly reduced"},
      {"measurement": "levels of IL-1β and IL-23β in supernatants", "setting": "monocytes [2]", "value": "reduced levels"},
      {"measurement": "stimulatory activity of monocyte conditioned media on γδ T cell IL-17 production", "setting": "monocytes [3]", "value": "suppresses; also recorded: significantly reduced"},
      {"measurement": "stimulatory activity of monocyte conditioned media on γδ T cell IL-17 production", "setting": "monocytes [3]; listed as 9-cisRA", "value": "significantly reduced"},
      {"measurement": "expression of γδT17 inducing cytokines (Il23a, Il12b, Il1α, Il1β, Tnf-α)", "setting": "monocytes [4]", "value": "suppressed; also recorded: reduced"},
      {"measurement": "expression of γδT17 inducing cytokines (Il23a, Il12b, Il1α, Il1β, Tnf-α)", "setting": "monocytes [4]; listed as 9-cisRA", "value": "suppresses"}
    ]},
    {"smiles": "CC1(C)CCC(C)(C)c2cc(NC(=O)c3ccc(C(=O)O)cc3)ccc21", "note": "[AM80]", "values": [
      {"measurement": "IL-17 production by γδ T cells", "setting": "γδ T cells [5]", "value": "suppress"}
    ]},
    {"smiles": "C=C(c1ccc(C(=O)O)cc1)c1cc2c(cc1C)C(C)(C)CCC2(C)C", "note": "[Bexarotene]", "values": [
      {"measurement": "effect on IL-17A/F cytokine concentration in supernatants", "setting": "γδ T cells [1]", "value": "suppressive effects"}
    ]},
    {"smiles": "CC/C=C\\C/C=C\\C/C=C\\C/C=C\\C/C=C\\C/C=C\\CCC(=O)O", "note": "[DHA, omega-3 docosahexaenoic acid]", "values": [
      {"measurement": "effect on IL-17A/F cytokine concentration in supernatants", "setting": "γδ T cells [1]", "value": "suppressive effects"}
    ]},
    {"smiles": "CN1c2ccc([N+](=O)[O-])cc2N=C(c2ccc(C(=O)O)cc2)c2cc3c(cc21)C(C)(C)CCC3(C)C", "note": "[HX531]", "values": [
      {"measurement": "effect on suppressive activity of the RAR agonist ATRA on IL-17A/F", "setting": "γδ T cells [1]; C57BL/6 γδ T cells, anti-CD3/CD28 beads plus IL-23 (FIG. 12)", "value": "did not have any effect"},
      {"measurement": "effect on the suppressive effects of RXRα agonists on IL-17A/F", "setting": "γδ T cells [1]; C57BL/6 γδ T cells, anti-CD3/CD28 beads plus IL-23, with 9-cisRA, Bexarotene, DHA, oleic acid, honokiol (FIG. 12)", "value": "blocked"}
    ]},
    {"smiles": "CC1=C(/C=C/C(C)=C/C=C/C(C)=C/C(=O)O)C(C)(C)CCC1", "note": "[all trans retinoic acid]", "values": [
      {"measurement": "effect on IL-17A/F cytokine concentration in supernatants", "setting": "γδ T cells [1]", "value": "suppressive activity"}
    ]},
    {"smiles": "C=CCc1ccc(O)c(-c2ccc(O)c(CC=C)c2)c1", "note": "[honokiol]", "values": [
      {"measurement": "effect on IL-17A/F cytokine concentration in supernatants", "setting": "γδ T cells [1]", "value": "suppressive effects"}
    ]},
    {"smiles": "CCCCCCCC/C=C\\CCCCCCCC(=O)O", "note": "[oleic acid]", "values": [
      {"measurement": "effect on IL-17A/F cytokine concentration in supernatants", "setting": "γδ T cells [1]", "value": "suppressive effects"}
    ]}
  ]
}
